Source: patent US5268308A, “Immunoassay for pyridostigmine” (priority 1989, dated 1993)

Biological target: Pyridostigmine Antibody
Assay: Cross-reactivity with pyridostigmine antibody in RIA (competition with labeled pyridostigmine)
Type: binding, rabbit (male New Zealand white)
Conditions: labeled pyridostigmine 5000 DPM; maximum tested 500 ng
Experimental: Antibodies to the pyridostigmine-BSA immunogen were produced by injecting male New Zealand white rabbits. Prior to injection, the immunogen was emulsified with an equal volume of complete Freund's adjuvant, purchased from Difco Laboratories. The initial immunization consisted of 0.8 mg of protein injected intracutaneously into the back of the rabbits. Booster injections containing 0.8 mg of immunogen and incomplete Freund's adjuvant were administered every one or two months for the next seven months. Blood was collected one week after each booster injection from the central ear vein. The blood was allowed to clot at room temperature and then centrifuged at 1500×g for 15 minutes. The separated serum was stored frozen at -20° C. until assayed for the presence of pyridostigmine antibody. […] FIG. 1 is the antibody dilution curve for pyridostigmine.
In the assay procedure tritiated pyridostigmine having specificity of […] was used as tracer. The dilution of tracer, antisera and pyridostigmine standards were made using 0.01 M phosphate buffer containing 150 mM sodium chloride with a pH of 7.4.. […] Both standard and sample tubes were always analyzed in duplicate. The assay was carried out according to the protocol shown in. Table 1 with the reagents were added to the assay tubes in the order shown in.
According to the protocol for the RIA of the present invention, after the addition of antisera, the contents of the tubes were mixed and incubated for 3 hours at 4° C. The antigen which bound to the antibody was separated by adding 100% saturated ammonium sulfate and centrifuging at 2500×g for 15 minutes. After aspiration of the supernatant, the precipitate was washed one time with 50% saturated ammonium sulfate; then the mixture was centrifuged and the supernatent removed. The precipitate was dissolved in 1.0 ml of distilled water, and the solution was transferred to a scintillation vial containing 10.0 ml of acquasol.
Cross-reactivity of various compounds with pyridostigmine antibody was determined in the RIA. […] Each compound was tested for cross-reactivity with the antibody. The maximum concentration of each compound tested was 500 ng.

SMILES | IC 50 (50% inhibition of binding of 3H-pyridostigmine to the antibody) [ng]
C[n+]1ccccc1/C=N/O [Pralidoxime Chloride] | > 500
CNC(=O)Oc1ccc2c(c1)[C@]1(C)CCN(C)[C@@H]1N2C [Physostigmmine] | > 500
C[n+]1cccc(O)c1 [3-Hydroxy-N-methyl-pyridostigmine] | > 500
CN(C)C(=O)Oc1cccc([N+](C)(C)C)c1 [Neostigmine] | > 500
